Experimental data published in patent US10745352B2, “Dual function molecules for histone deacetylase inhibition and ataxia telangiectasia mutated activation and methods of use thereof” (Shuttle Pharmaceuticals, Inc., priority 2015, dated 2020).

Key:
[1] = test system: HPV+ CasKi cells vs normal epithelial cells (RWPE1 cells); assay: MTT cytotoxicity assay, normal epithelial cells versus HPV+ cervical cancer cells; type: cell-based, human
Protocol: SP-1-161 was tested in a MTT cytotoxicity assay against normal epithelial cells and human papilloma virus positive (HPV+) cancerous (CasKi) cervical cells. […] This supports the role for the compounds of the invention (e.g., SP-1-161) as treatments of HPV+ cancers and tumors.

[2] = test system: breast cancer cells (MCF7 cells); assay: MTT cytotoxicity assay, breast cancer cells; type: cell-based; settings: Homo sapiens, cell line not named in the sentence (FIG. 9: MCF7 and 184A1)
Protocol: Certain compounds of the invention were tested in both an MTT cytotoxicity assay and clonogenic cytotoxicity assay against breast cancer cells (MCF7 cells) and normal breast tissue cells (184A1 cells) to determine the cytotoxic effect of such cells as a function of concentration.
Specifically, the compounds tested included: N-(6-(hydroxyamino)-6-oxohexyl)-3-methyl-1H-indole-2-carboxamide (SP-1-161); -hydroxy-N^6-(2-(2-methyl-1H-indol-3-yl)ethyl)octanediamide (SP-1-163); (S)—N-(6-(hydroxyamino)-6-oxohexyl)-1-tosylindoline-2-carboxamide (SP-1-169); and (S)-1-((5-(dimethylamino)naphthalene-1-yl)sulfonyl)-N-(6-(hydroxyamino)-6-oxoheyl)indoline-carboxamide (SP-1-171).

[3] = test system: normal prostate epithelial (RWPE1) cells vs prostate cancer (PC3) cells; assay: MTT cytotoxicity assay, normal prostate epithelial cells versus prostate cancer cells; type: cell-based
Protocol: Certain compounds of the invention were tested in an MTT cytotoxicity assay against a breast cancer cell line (MCF7), prostate cancer cell line (PC3), cervical cancer cell line (CasKi), and head and neck cancer cell line (SQ20B). In the breast and prostate cancer MTT assays, certain compounds of the invention were also tested against normal breast (MCF10A) and prostate (RWPE1) epithelial tissues.
Specifically, the compounds tested included SP-1-161, SP-1-229, and SP-1-303. Suberoylanilide hydroxamic acid (SAHA), a known HDAC inhibitor, was also tested in the assay as control.

[4] = test system: healthy breast epithelial cells (184A1 cells); assay: Radiation clonogenic survival, normal breast epithelial cells; type: cell-based; settings: compound at IC50 concentration for 24 h, then gamma radiation; compared with DIM
Protocol: (§1) N-(6-(hydroxyamino)-6-oxohexyl)-3-methyl-1H-indole-2-carboxamide (SP-1-161) was tested against DIM in a radiation clonogenic survival study with healthy breast epithelial cells (184A1 cells) (FIG. 11A) and breast cancer cells (MCF7 cells) (FIG. 11B). After treatment with the compounds of the invention for 24 hours, the cells were exposed to graded doses of gamma radiation.
(§2) Logarithmically growing cells were seeded into T-25 flasks at various densities to yield approximately 50-100 colonies/flask. After incubation for 24 h at 37° C., cells were treated or not with the compound at the IC50 concentration for 24 h followed by sham or irradiation at room temperature using a Mark-30 irradiator with a 137-Cs source at a fixed dose rate of 2.27 Gy/min. After 10-14 days, cells were fixed and stained with crystal violet, and colonies of more than 50 cells were counted. The surviving fractions of the treated cells were normalized to the plating efficiencies of untreated controls. Radiation survival curves were fitted by computer to the single-hit, multitarget and the linear-quadratic models.
(§3) The radiation sensitivity of cells is defined by the terminal slope of the radiation survival curve, which is referred to as D0. The steeper the slope, the smaller is the value of D0, and thus the more radiation sensitive the respective cells. […]

[5] = test system: breast cancer cells (MCF7 cells); assay: Radiation clonogenic survival, breast cancer cells; type: cell-based; settings: compound at IC50 concentration for 24 h, then gamma radiation; compared with DIM
Protocol: as §1, §2, §3

Question: Which results are given for Cc1c(C(=O)NCCCCCC(=O)NO)[nH]c2ccccc12 [SP-1-161, N-(6-(hydroxyamino)-6-oxohexyl)-3-methyl-1H-indole-2-carboxamide]?
Answer: IC50 for HPV+ CasKi cells, times lower than that for normal epithelial cells (RWPE1 cells) [1]: 29 times; IC50 [2]: 416 nM; fold less toxic in normal prostate epithelial (RWPE1) cells than in prostate cancer (PC3) cells [3]: 15 fold; protection of normal cells from radiation (184A1) [4]: protected normal cells from radiation-mediated killing; radiation sensitizing activity in breast cancer cells (MCF7) [5]: demonstrated radiation sensitizing activity and further outperformed DIM
